# Measurements from ChEMBL document CHEMBL4411258, “Novel natural compounds from endophytic fungi with anticancer activity” (Eur J Med Chem, 2018).
# Columns and labels:
# [1] = Inhibition of TNFalpha-induced NFkappaB (unknown origin) activation expressed in HEK293 cells preincubated for 1 hr followed by TNFalpha stimulation and measured after 1 hr by dual luciferase reporter gene assay; format: cell-based; conditions: Homo sapiens
# [2] = Cytotoxicity against human Tca8113 cells after 72 hrs by MTT assay; format: functional, cell-based
# [3] = tested on: MG-63; experiment: Cytotoxicity against human MG63 cells after 72 hrs by MTT assay; format: functional, cell-based; conditions: MG-63, 72 h
# [4] = tested on: SK-OV-3; experiment: Cytotoxicity against human SKOV3 cells after 48 hrs by neutral red dye based assay; format: functional, cell-based; conditions: SK-OV-3, 48 h
# [5] = tested on: BT-549; experiment: Cytotoxicity against human BT549 cells after 48 hrs by neutral red dye based assay; format: functional, cell-based; conditions: BT-549, 48 h
# [6] = tested on: HL-60; experiment: Cytotoxicity against human HL60 cells by MTT assay; format: functional, cell-based
# [7] = tested on: MCF7; experiment: Cytotoxicity against human MCF7 cells by MTS assay; format: functional, cell-based
# [8] = Cytotoxicity against mouse LM3 cells by MTS assay; format: functional, cell-based
# [9] = tested on: L02; experiment: Cytotoxicity against human L02 cells by MTS assay; format: cell-based
# [10] = tested on: HeLa; experiment: Cytotoxicity against human HeLa cells by MTS assay; format: functional, cell-based
# [11] = tested on: Huh-7; experiment: Cytotoxicity against human HuH7 cells by MTS assay; format: functional, cell-based
# [12] = tested on: A549; experiment: Cytotoxicity against human A549 cells by MTS assay; format: functional, cell-based
# [13] = tested on: NCI-H446; experiment: Cytotoxicity against human NCI-H446 cells by MTS assay; format: functional, cell-based
# [14] = tested on: SW1990; experiment: Cytotoxicity against human SW1990 cells by MTS assay; format: functional, cell-based
# [15] = target: Polyunsaturated fatty acid 5-lipoxygenase (Homo sapiens) (UniProt P09917); experiment: Inhibition of 5-LOX (unknown origin) at 30 ug/ml relative to control
# [16] = tested on: HL-60; experiment: Cytotoxicity against human HL60 cells by trypan blue staining based assay; format: functional, cell-based
# [17] = tested on: A2780; experiment: Cytotoxicity against human A2780 cells by MTT assay; format: functional, cell-based
# [18] = tested on: A549; experiment: Cytotoxicity against human A549 cells by MTT assay; format: functional, cell-based
# [19] = tested on: PC-3; experiment: Cytotoxicity against human PC3 cells by MTT assay; format: functional, cell-based
# [20] = tested on: SH-SY5Y; experiment: Cytotoxicity against human SH-SY5Y cells by MTT assay; format: functional, cell-based
# [21] = tested on: MCF7; experiment: Cytotoxicity against human MCF7 cells by MTT assay; format: functional, cell-based
# [22] = tested on: Vero; experiment: Cytotoxicity against African green monkey Vero cells by resazurin microplate assay; format: cell-based; conditions: Chlorocebus sabaeus
# [23] = tested on: NCI-H187; experiment: Cytotoxicity against human NCI-H187 cells by resazurin microplate assay; format: functional, cell-based
# [24] = Inhibition of RANKL-induced NFkappaB (unknown origin) activation expressed in mouse RAW264.7 cells preincubated for 1 hr followed by RANKL stimulation and measured after 6 hrs by luciferase reporter gene based assay; format: cell-based
# [25] = tested on: SGC-7901; experiment: Cytotoxicity against human SGC7901 cells by MTT assay; format: functional, cell-based
# [26] = tested on: MDA-MB-435; experiment: Cytotoxicity against human MDA-MB-435 cells by MTT assay; format: functional, cell-based
# [27] = tested on: MOLT-3; experiment: Cytotoxicity against human MOLT3 cells by XTT assay; format: functional, cell-based
# [28] = tested on: HepG2; experiment: Cytotoxicity against human HepG2 cells by MTT assay; format: functional, cell-based
# [29] = tested on: NB-4; experiment: Cytotoxicity against human NB4 cells by MTT assay; format: functional, cell-based
# [30] = tested on: T47D; experiment: Cytotoxicity against human T47D cells after 48 hrs by MTT assay; format: functional, cell-based
# Chain of Polyunsaturated fatty acid 5-lipoxygenase (Homo sapiens) (P09917 whole entry): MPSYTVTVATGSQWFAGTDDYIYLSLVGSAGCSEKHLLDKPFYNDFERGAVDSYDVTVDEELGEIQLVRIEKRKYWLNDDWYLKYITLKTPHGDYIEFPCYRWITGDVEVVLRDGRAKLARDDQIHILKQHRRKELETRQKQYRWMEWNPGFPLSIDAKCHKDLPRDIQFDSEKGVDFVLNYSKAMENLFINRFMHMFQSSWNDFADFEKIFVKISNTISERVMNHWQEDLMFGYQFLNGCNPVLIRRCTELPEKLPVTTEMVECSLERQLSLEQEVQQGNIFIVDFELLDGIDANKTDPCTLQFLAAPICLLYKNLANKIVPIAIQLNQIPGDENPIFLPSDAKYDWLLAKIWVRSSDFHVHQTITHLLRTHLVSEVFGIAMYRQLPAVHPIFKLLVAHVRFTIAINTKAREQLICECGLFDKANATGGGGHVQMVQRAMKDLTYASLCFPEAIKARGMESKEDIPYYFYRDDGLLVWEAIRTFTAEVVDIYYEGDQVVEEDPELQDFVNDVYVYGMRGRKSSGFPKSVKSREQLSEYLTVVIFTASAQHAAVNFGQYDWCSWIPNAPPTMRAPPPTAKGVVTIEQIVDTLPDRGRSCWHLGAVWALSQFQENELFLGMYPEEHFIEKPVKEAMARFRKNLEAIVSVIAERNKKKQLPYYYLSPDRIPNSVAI
structure (smiles),measurement,setting,value
CO[C@]12OC[C@@H](C)[C@H]1C[C@]1(C)[C@@H](C)CC[C@H](O)[C@@]13O[C@@H]23,IC50,[1],19.2 µM
C[C@@H]1CC[C@@H]2[C@@H](C)C(=O)O[C@@H]2[C@@]12C=C(CO)CC2,IC50,[2],10 µM
same,IC50,[3],0.055 µM
C=C(CC[C@@H](C)[C@H]1CC=C2C3=C([C@@H](O)[C@H](OC(C)=O)[C@@]21C)[C@@]1(C)C[C@@H](O)[C@H](OC(C)=O)C(C)(C)[C@@H]1CC3)C(C)C,IC50,[4],0.16 µg/mL
same,IC50,[5],1.97 µg/mL
COC1=C2c3cc(OC)cc(O)c3C(=O)O[C@]2(C)CC1=O,IC50,[6],75.3 µM
CC(C)(O)C(O)COc1ccc(CCO)cc1 (stereo not drawn),IC50,[2],26 µM
same,IC50,[3],35 µM
O=C1CC[C@@H](c2ccc(O)c3c2C(=O)CC[C@H]3O)c2cccc(O)c21,IC50,[7],1 to 20 µM
same,IC50,[8],1 to 20 µM
same,IC50,[9],1 to 20 µM
same,IC50,[10],1 to 20 µM
same,IC50,[11],1 to 20 µM
same,IC50,[12],1 to 20 µM
same,IC50,[13],1 to 20 µM
same,IC50,[14],1 to 20 µM
CCCCC(O)/C=C/C1=C(CO)[C@@H](O)[C@@H](O)[C@](Cl)(C/C=C(\C)C(=O)O)C1=O (stereo partly drawn),inhibition,[15],48.3%
CC(C)=CC/C=C(/C)[C@H]1CC[C@@]2(C)OC3=C(C[C@@H]12)C(=O)CC[C@@H]3O,IC50,[16],30.6 µM
O=C1N[C@H](Cc2ccccc2)C(=O)N[C@H]1Cc1cn([C@]23C[C@H]4C(=O)N[C@H](Cc5ccccc5)C(=O)N4[C@H]2Nc2ccccc23)c2ccccc12,IC50,[17],56.7 µM
COC(=O)[C@@H]1c2c(oc3cc(C)cc(OC)c3c2=O)C=C[C@H]1O,IC50,[18],8.2 µM
same,IC50,[19],6.9 µM
same,IC50,[20],7.8 µM
same,IC50,[21],8.4 µM
C[C@@H]1CC[C@@H]2[C@H](C=C[C@H]3[C@H](/C=C/[C@H](C)O)OC(=O)[C@@]23C)C1,IC50,[22],31.5 µg/mL
same,IC50,[23],17.8 µg/mL
O=C1C[C@@H](O)[C@]2(Oc3cccc4c(O)ccc(c34)O2)c2c(O)ccc(O)c21,IC50,[16],2.39 µM
COC(=O)c1cc(OC)c(O)c2oc3c(c(=O)c12)[C@H](OC)O[C@@H](C)C3,IC50,[24],30 to 46 µM
CC1=C[C@@H]2/C=C/C[C@H](C)/C=C(\C)C(=O)C(=O)/C=C/C(=O)[C@]23C(=O)N[C@H]2Cc4c([nH]c5ccccc45)[C@@]1(C)[C@@H]23,IC50,[18],8.73 µM
same,IC50,[25],5.32 µM
same,IC50,[26],4.65 µM
C/C(=C\C=C\[C@H](O)[C@@H](C)O)[C@H](O)[C@H](C)C(=O)O[C@H]1C[C@H](C)C[C@@H]2C=C[C@H](C)[C@](C)(C(=O)CCO)[C@@H]12,IC50,[27],37.3 µg/mL
CC(C)CCC[C@@H](C)[C@H]1CC[C@H]2[C@@H]3CC[C@H]4C[C@@H](O[C@@H]5O[C@H](CO)[C@@H](O)[C@H](O)[C@H]5O)CC[C@]4(C)[C@H]3CC[C@]12C,IC50,[9],4.7 µM
same,IC50,[19],6.1 µM
same,IC50,[28],5.5 µM
COC(=O)[C@]1(Cc2ccc(O)c(CC(C)=O)c2)OC(=O)C(O)=C1c1ccc(OC)cc1,IC50,[9],< 10 µM
same,IC50,[29],< 10 µM
same,IC50,[20],< 10 µM
same,IC50,[28],< 10 µM
CO[C@H]1CCC(=O)c2c([C@@H]3CCC(=O)c4c(O)cccc43)ccc(O)c21,IC50,[7],1 to 20 µM
same,IC50,[8],1 to 20 µM
same,IC50,[9],1 to 20 µM
same,IC50,[10],1 to 20 µM
same,IC50,[11],1 to 20 µM
same,IC50,[12],1 to 20 µM
same,IC50,[13],1 to 20 µM
same,IC50,[14],1 to 20 µM
CC1=C(C)C2=CC(=O)C3=C(C(=O)c4oc(C)cc4C3=O)[C@@]2(C)CC1=O,IC50,[6],12.5 µM
CO[C@@H]1CCC(=O)c2c([C@@H]3CCC(=O)c4c(O)cccc43)ccc(O)c21,IC50,[7],1 to 20 µM
same,IC50,[8],1 to 20 µM
same,IC50,[9],1 to 20 µM
same,IC50,[10],1 to 20 µM
same,IC50,[11],1 to 20 µM
same,IC50,[12],1 to 20 µM
same,IC50,[13],1 to 20 µM
same,IC50,[14],1 to 20 µM
C=C(CO)C(=O)CCC(C)C1=CC[C@@]2(C)OC3=C(C[C@@H]12)C(=O)[C@@H](O)CC3 (stereo partly drawn),IC50,[16],4.81 µM
COC(=O)c1cc(OC)cc2c1C(=O)[C@H]([C@@H](O)CC(C)=O)CO2,IC50,[24],30 to 46 µM
COC(=O)[C@@H]1c2c(oc3cc(CO)cc(OC)c3c2=O)C=C[C@H]1O,IC50,[18],5.7 µM
same,IC50,[29],8.6 µM
same,IC50,[20],4.9 µM
same,IC50,[21],8.8 µM
C=CC1=CC2=CC(=O)[C@](C)(OC(=O)/C=C/C(C)=C/[C@@H](C)CCCC)C(=O)C2=CO1,IC50,[30],1 to 10 µM
COC(=O)c1cc(O)cc2oc3c(c(=O)c12)[C@@H](OC)O[C@H](C)C3,IC50,[24],30 to 46 µM
